Results: patent US7041486B1, “Enzyme having decolorizing activity and method for decolorizing dyes by using the same” (Meiji Seika Kaisha Ltd., priority 1999, dated 2006)
Entries after “also recorded” stand apart in the source; their conditions may differ. Where two headings read alike, the source gives them in different places.

Experiments:
DyP [1] = experiment: Oxidation of model compounds by DyP (absorbance); assay type: biochemical, Geotrichum candidum Dec 1; settings: for Oxidation rate: 2.79 nM DyP, 0.2 mM hydrogen peroxide, 25 mM citrate buffer, pH and initial concentration (mM) as in columns c2, c3, 470 nm or 465 nm; for Degradation by DyP (in words): model compounds of Table 2
Protocol: As the model compounds, additionally, use was made of 2,6-dimethoxyphenol, guaiacol and veratryl alcohol.
As to 2,6-dimethoxyphenol used as a model compound, alternatively, absorbance at 470 nm was calorimetrically measured, which emerged via oxidation.
That is to say, a mixture solution of 2.79 nM DyP and 0.2 mM 2,6-dimethoxyphenol was reacted with 25 mM citrate buffer (pH 4.5) containing 0.2 mM hydrogen peroxide.
As to guaiacol, 1 mM guaiacol was used in place of 0.2 mM 2,6-dimethoxyphenol, for absorbance measurement at 465 nm.

DyP [2] = experiment: Assay of dye-degrading (decolorizing) activity of purified DyP; assay type: biochemical, Geotrichum candidum Dec 1; settings: dyes of Table 1
Protocol: The dye-degrading spectrum of the purified DyP was examined for nine types of dyes and three model compounds. The activity of the purified DyP to degrade these dyes or model compounds was assayed by measuring the degradation rates.
As the dyes, use was made of Reactive blue 5, 19 and 114; AQ-1 and AQ-2; Reactive black 5, Reactive red 33, Reactive yellow 2, and Reactive blue 182.
The dye-degrading activity was measured as follows.
0.2 to 0.4 mM aqueous hydrogen peroxide was added to a mixture solution of 3 mL of 25 mM citrate buffer (adjusted to the optimum pH for the degradation of each of the dyes) containing each dye at a fixed […] (30 to 120 ppm) and 1 mL of 1.86 nM DyP solution, to initiate the enzyme reaction. Reaction was performed at 30° C. for a fixed period of time, to assay the reaction rate.
1 U of the dye-degrading activity was defined as the activity to decolorize 1 μmole Reactive blue 5 or AQ-2 for one minute.

DyP [3] = assay type: biochemical, Geotrichum candidum Dec 1; settings: for Specific activity (%): 100 ppm Reactive blue 5, no addition = 100
Source text: […], zinc, copper (divalent), potassium, iron (divalent) and sodium were concurrently present in a reaction solution comprising DyP and 100 ppm Reactive blue 5, so as to examine the effects of these metal ions on the relative activity of the DyP enzyme.

[4] = Temperature stability of peroxidase (remaining activity after storage); assay type: physicochemical; settings: 25 mM citrate buffer
Protocol: After the inventive dye-degrading enzyme DyP was stored at a fixed temperature for a fixed period of time, the ratio of the remaining activity was subsequently evaluated. Specifically, a solution of the dye-degrading enzyme DyP in 25 mM citrate buffer was stored at 30° C. or 40° C. for 14 days.
So as to compare the temperature stability with those of other peroxidases, solutions of individual enzymes in 25 mM citrate buffer were stored at 60° C. for 3 hours, by using a commercially available horse-radish peroxidase (manufactured by Wako Chemical Co., Ltd.; sometimes abbreviated as HRP hereinafter) as the control. Subsequently, the remaining enzyme activities were compared to each other.

Isoelectric focusing = assay type: physicochemical; settings: FIG. 2
Protocol: Then, the isoelectric point of the inventive enzyme was measured. The isoelectric point was measured by isoelectric focusing.
For measurement of isoelectric focusing, a low-pI calibration kit of Multiphor II 2-D for pH 2.5 to pH 6.5, manufactured by Pharmacia, Co. was used. Consequently, the isoelectric point of DyP was assayed as 3.8.

COc1cccc(OC)c1O [2,6-Dimethoxyphenol, 2,6-dimethoxyphenol]
Oxidation rate (DyP [1]): 0.29 ΔOD/min
Degradation by DyP (in words) (DyP [1]): could efficiently be degraded

CNc1cc(S(=O)(=O)[O-])c(N)c2c1C(=O)c1ccccc1C2=O.[Na+] [AQ-2, 1-amino-4-methylamino-2-sodium-anthraquinone sulfonate]
Degradation by DyP (in words) (DyP [2]): excellent degradation activity

[Ca+2] [Ca^++, calcium]
Specific activity (%) (DyP [3]; metal ion 5 mM): 81%

[Cu+2] [Cu^++, copper (divalent)]
Specific activity (%) (DyP [3]; metal ion 5 mM): 75%

[Fe+2] [Fe^++, iron (divalent)]
Inhibition of DyP activity (DyP [3]; ion concurrently present at 0.2 mM): 50%
Specific activity (%) (DyP [3]; metal ion 0.2 mM): 50%

COc1ccccc1O [Guaiacol, guaiacol]
Oxidation rate (DyP [1]): 0.29 ΔOD/min
Degradation by DyP (in words) (DyP [1]): could efficiently be degraded

[K+] [K^+, potassium]
Specific activity (%) (DyP [3]; metal ion 5 mM): 81%

[Na+] [Na^+, sodium]
Specific activity (%) (DyP [3]; metal ion 5 mM): 81%

Nc1c(S(=O)(=O)[O-])cc(Nc2ccc(S(=O)(=O)[O-])c(Nc3nc(Cl)nc(Nc4cccc(S(=O)(=O)[O-])c4)n3)c2)c2c1C(=O)c1ccccc1C2=O.[Na+].[Na+].[Na+] [Reactive blue 5]
Degradation by DyP (in words) (DyP [2]): excellent degradation activity

Nc1c(S(=O)(=O)[O-])cc(Nc2cccc(S(=O)(=O)CCOS(=O)(=O)[O-])c2)c2c1C(=O)c1ccccc1C2=O.[Na+].[Na+] [Reactive blue 19]
Degradation by DyP (in words) (DyP [2]): excellent degradation activity

COc1ccc(CO)cc1OC [Veratryl alcohol, veratryl alcohol]
Degradation by DyP (in words) (DyP [1]): could never degrade; also recorded: no reaction

[Zn+2] [Zn^++, zinc]
Specific activity (%) (DyP [3]; metal ion 5 mM): 69%

Reactive blue 182
Degradation by DyP (in words) (DyP [2]): efficiently degraded

B1: DyP: peroxidase derived from Geotrichum candidum Dec 1 strain (FERM BP-7033), amino acid sequence SEQ ID NO. 7 (protein, listed as Geotrichum candidum)
chain: MDLSLFVVSVAVLVGSSSHVNAAKLGARQTRTTPLLTNFPGQAPLPTLTQHTTESGANDTILPLNNIQGDILVGMKKQKERFVFFQVNDATSFKTALKTYVPQRITSAAILISDPSQQPLAFVNLGFSNTGLQALGITDDLGDAQFPDGQFADAANLGDDLSQWVAPFTGTTIHGVFLIGSDQDDFLDQFTDDISSTFGSSITQVQALSGSARPGDQAGHEHFGFLDGISQPSVTGWETTVFPGQAVVPPGIILTGRDGDTGTRPSWALDGSFMAFRHFQQKVPEFNAYTLANAIPANSAGNLTQQEGAEFLGARMFGRWKSGAPIDLAPTADDPALGADPQRNNNFDYSDTLTDETRCPFGAHVRKTNPRQDLGGPVDTFHAMRSSIPYGPETSDAELASGVTAQDRGLLFVEYQSIIGNGFRFQQINWANNANFPFSKPITPGIEPIIGQTTPRTVGGLDPLNQNETFTVPLFVIPKGGEYFFLPSISALTATIAA
Remaining enzyme activity ([4]; stored at 30° C. for 14 days): 63%
Remaining enzyme activity ([4]; stored at 40° C. for 14 days): 41%
Remaining enzyme activity ([4]; stored at 60° C. for 3 hours): 65%
Isoelectric point (pI) (Isoelectric focusing): 3.8
